The results in this text go back to patent US9598424B2 (Takeda Pharmaceutical Company Limited, priority 2014, dated 2017).

One series concerns the target T1, Full length human TBK1 (Homo sapiens, UniProt Q9UHD2).
T1 construct: Full length human TBK1 with an N-terminal His-tag; His-tag (N); made in house; host or cells: Sf9 insect cells (baculovirus, pFastBac1)
T1 sequence (Q9UHD2 1-729): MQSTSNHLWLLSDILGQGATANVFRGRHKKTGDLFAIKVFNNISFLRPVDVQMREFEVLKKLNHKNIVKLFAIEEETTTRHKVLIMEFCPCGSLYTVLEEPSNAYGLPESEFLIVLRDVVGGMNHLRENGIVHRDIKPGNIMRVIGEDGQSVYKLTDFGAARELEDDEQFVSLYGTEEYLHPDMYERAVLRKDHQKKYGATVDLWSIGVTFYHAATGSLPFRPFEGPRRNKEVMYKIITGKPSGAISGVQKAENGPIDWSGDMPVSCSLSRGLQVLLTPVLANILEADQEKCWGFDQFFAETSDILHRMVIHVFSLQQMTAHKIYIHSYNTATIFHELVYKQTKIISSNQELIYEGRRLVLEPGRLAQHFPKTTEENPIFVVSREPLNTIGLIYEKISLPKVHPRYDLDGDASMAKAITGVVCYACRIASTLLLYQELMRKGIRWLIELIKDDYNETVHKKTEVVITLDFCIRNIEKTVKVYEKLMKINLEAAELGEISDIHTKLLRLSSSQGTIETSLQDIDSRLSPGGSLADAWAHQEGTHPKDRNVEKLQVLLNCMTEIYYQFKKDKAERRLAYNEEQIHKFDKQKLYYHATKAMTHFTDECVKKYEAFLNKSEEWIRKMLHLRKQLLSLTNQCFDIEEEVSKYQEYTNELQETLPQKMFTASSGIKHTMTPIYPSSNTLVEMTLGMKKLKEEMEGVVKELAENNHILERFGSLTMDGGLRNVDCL
Put plainly: Inhibition of TBK1 Enzyme (Caliper microfluidic assay). It is filed as biochemical. Conditions: 25 μM ATP, 60 min at RT; -log(IC50), IC50 molar; read-out: TBK1 Inhibition (pIC50) (converted). Put shortly: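 Enzyme: His-tagged full-length TBK1 expressed in Sf9. Reaction 60 min at RT in 20 mM Hepes pH 7.4, 10 mM MgCl2, 1 mM EDTA, 0.01% Brij-L23, 1 mM DTT, with 5FAM-peptide (added at 1 μM) and TBK1/ATP mix (added at 3 nM/25 μM), then EDTA-quenched. Conversion measured by microfluidic separation; 11-point 2.5-fold series fit to pIC50.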

A further series has as its target T2, TBK1 (Homo sapiens, UniProt Q9UHD2).
T2 construct: host or cells: RA1-ISRE beta-lactamase reporter cells
T2 sequence (Q9UHD2 1-729): T1 sequence (Q9UHD2 1-729)
Kind of series: Inhibition of TBK1 in Cells (TLR3 driven ISRE β-lactamase reporter assay). The class given is cell-based. Conditions: poly IC-LMW stimulation 16 hrs; -log(EC50), EC50 molar; read-out: Inhibition of TBK1 in cells pEC50 (EC) (converted). Put shortly:
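RA1-ISRE β-lactamase reporter cells (50,000/well) treated with 11-point 2.5-fold compound dilutions and stimulated with 0.15 mg/ml poly IC-LMW for 16 hrs. Reporter read by CCF4-AM FRET; EC50 from non-linear fit of percent inhibition, reported as pEC50 (molar).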

In the next series the test system is C57/BL6 mice. Put plainly: Inhibition of ConA Induced Hepatitis (plasma ALT). It is filed as in vivo. Conditions: Mus musculus; oral, 1 hr before ConA 15 mg/kg i.v.; plasma collected post 8-24 hrs; read-out: ED50 (amount reducing ConA induced increase in plasma ALT level by 50%). Here is the method: Orally administer compound into normal C57/BL6 mice at several doses. After 1 hr, inject i.v. with ConA 15 mg/kg, (N=5). Post 8-24 hrs, collect plasma and liver. Measure plasma ALT enzyme level. An ED50 is determined as the amount of test compound that reduces ConA induced increase in plasma ALT level by 50%.

Take `Cc1c(-c2ccc3nc(NC(=O)C4CC4)cn3c2)n[nH]c1C(=O)NCC(F)(F)F` [Example 25, 3-(2-(cyclopropanecarboxamido)imidazo[1,2-a]pyridin-6-yl)-4-methyl-N-(2,2,2-trifluoroethyl)-1H-pyrazole-5-carboxamide]: the melting point was > 275 °C. In addition, on Full length human TBK1, the IC50 was 79.4 nM. For the same compound, the EC50 on TBK1 is 3310 nM.

`CC(F)(F)CNC(=O)c1cc(-c2ccc3nc(NC(=O)C4CC4)cn3c2)cs1` [Example 3, 4-(2-(cyclopropanecarboxamido)imidazo[1,2-a]pyridin-6-yl)-N-(2,2-difluoropropyl)thiophene-2-carboxamide] yielded a melting point of 117 to 119 °C. Moreover, the IC50 at Full length human TBK1 was 5.01 nM. Besides, at TBK1, the EC50 was 166 nM.

Consider `O=C(NCC(F)(F)F)c1nc(-c2ccc3nc(NC(=O)C4CC4)cn3c2)cs1` [Example 4, 4-(2-(cyclopropanecarboxamido)imidazo[1,2-a]pyridin-6-yl)-N-(2,2,2-trifluoroethyl)thiazole-2-carboxamide], for which the melting point was 279 to 282 °C. Besides, the IC50 at Full length human TBK1 is 5.01 nM. Besides, at TBK1, the EC50 is 617 nM.

For `O=C(NCC(F)F)c1nc(-c2ccc3nc(NC(=O)C4CC4)cn3c2)cs1` [Example 86, 4-(2-(cyclopropanecarboxamido)imidazo[1,2-a]pyridin-6-yl)-N-(2,2-difluoroethyl)thiazole-2-carboxamide], the 50% effective dose (ED50) in the series with C57/BL6 mice was 5 mg/kg. Further, the IC50 at Full length human TBK1 was 15.8 nM. The EC50 on TBK1 is 537 nM.

As for `Cn1nc(-c2ccc3nc(NC(=O)C4CC4)cn3c2)cc1C(=O)NCC(F)(F)F` [Example 1, 3-(2-(cyclopropanecarboxamido)imidazo[1,2-a]pyridin-6-yl)-1-methyl-N-(2,2,2-trifluoroethyl)-1H-pyrazole-5-carboxamide], the melting point lay within 251 to 255 °C. Further, the IC50 on Full length human TBK1 was 251 nM. The EC50 at TBK1 was 8320 nM.

For the compound `COCCC(=O)Nc1cn2cc(-c3csc(C(=O)NCC(F)(F)F)c3)ccc2n1` [Example 15, 4-(2-(3-methoxypropanamido)imidazo[1,2-a]pyridin-6-yl)-N-(2,2,2-trifluoroethyl)thiophene-2-carboxamide], the melting point fell in the range of 231 to 233 °C. Moreover, the IC50 at Full length human TBK1 was 25.1 nM. The EC50 at TBK1 was 933 nM.

As for `CC(=O)Nc1cn2cc(-c3csc(C(=O)NCC(F)(F)F)c3)ccc2n1` [Example 13, 4-(2-acetamidoimidazo[1,2-a]pyridin-6-yl)-N-(2,2,2-trifluoroethyl)thiophene-2-carboxamide], the melting point fell in the range of 180 to 182 °C. The IC50 on Full length human TBK1 was 25.1 nM. Besides, the EC50 on TBK1 is 813 nM.

In turn, `Cn1nc(-c2ccc3nc(NC(=O)C4CC4)cn3c2)cc1C(=O)NCC(F)F` [Example 2, 3-(2-(cyclopropanecarboxamido)imidazo[1,2-a]pyridin-6-yl)-N-(2,2-difluoroethyl)-1-methyl-1H-pyrazole-5-carboxamide] returned a melting point of 284 to 290 °C. Moreover, the IC50 at Full length human TBK1 is 316 nM. Moreover, the EC50 at TBK1 is 8320 nM.

Turning to `COCC(=O)Nc1cn2cc(-c3csc(C(=O)NCC(F)(F)F)c3)ccc2n1` [Example 14, 4-(2-(2-methoxyacetamido)imidazo[1,2-a]pyridin-6-yl)-N-(2,2,2-trifluoroethyl)thiophene-2-carboxamide], the melting point is 230 to 232 °C. On Full length human TBK1, the IC50 was 39.8 nM. On TBK1, the EC50 is 1740 nM.

In the case of `COCCN(CC(F)F)C(=O)c1cc(-c2ccc3nc(NC(=O)C4CC4)cn3c2)cs1` [Example 121, 4-(2-(cyclopropanecarboxamido)imidazo[1,2-a]pyridin-6-yl)-N-(2,2-difluoroethyl)-N-(2-methoxyethyl)thiophene-2-carboxamide], the IC50 on Full length human TBK1 was 39.8 nM. The EC50 on TBK1 was 1120 nM.

For `O=C(NC1CCCOC1)c1nc(-c2ccc3nc(NC(=O)C4CC4)cn3c2)cs1` (stereo in doubt) [Example 88, (S)-4-(2-(cyclopropanecarboxamido)imidazo[1,2-a]pyridin-6-yl)-N-(tetrahydro-2H-pyran-3-yl)thiazole-2-carboxamide], the IC50 on Full length human TBK1 was 63.1 nM. Also, the EC50 on TBK1 is 1550 nM.

For `O=C(Nc1cn2cc(-c3cc(C(=O)N4CCCC4)[nH]n3)ccc2n1)C1CC1` [Example 116], the IC50 on Full length human TBK1 is 200 nM. Besides, the EC50 at TBK1 was 3020 nM.

For the compound `O=C(Nc1cn2cc(-n3ccc(C(=O)N(CCO)CC(F)(F)F)n3)ncc2n1)C1CC1` [Example 127, 1-(2-(cyclopropanecarboxamido)imidazo[1,2-a]pyrazin-6-yl)-N-(2-hydroxyethyl)-N-(2,2,2-trifluoroethyl)-1H-pyrazole-3-carboxamide], the IC50 on Full length human TBK1 was 5.01 nM. In addition, the EC50 on TBK1 was 209 nM.

For orientation: melting point means the temperature, or range, at which the solid turns liquid. In general, ED50 refers to the midpoint of the dose-response relation.
